ChEMBL document CHEMBL1127583, “Discovery of a potent, peripherally selective trans-3,4-dimethyl-4-(3-hydroxyphenyl)piperidine opioid antagonist for the treatment of gastrointestinal motility disorders” (J Med Chem, 1994)
pKi: −log10 of the molar value.

What was measured:
[1] = molecular target: Kappa-type opioid receptor (Cavia porcellus) (UniProt P41144); assay: Tested for binding affinity towards kappa receptor in presence of [3H]EKC radioligand at 10 nM
Mus musculus [2] = assay: Tested for effective dose required to produce diarrhea in morphine dependent mice after peroral administration; type: functional
Mu-type opioid receptor [3] = molecular target: Mu-type opioid receptor (Rattus norvegicus, UniProt P33535); assay: Tested for binding affinity towards mu receptor in presence of [3H]NAL radioligand
Mus musculus [4] = assay: Tested for effective dose required to produce diarrhea in morphine dependent mice after subcutaneous administration; type: functional
Mus musculus [5] = assay: Tested for reduction in the analgesic response to morphine after subcutaneous administration of 1.25 mg/kg in abdominal stretching assay; type: functional, Abdomen
[6] = molecular target: Kappa-type opioid receptor (Cavia porcellus) (UniProt P41144); assay: Tested for binding affinity towards kappa receptor in presence of [3H]EKC radioligand at 100 nM
[7] = molecular target: T1, Kappa-type opioid receptor (Cavia porcellus, UniProt P41144); assay: Tested for binding affinity towards kappa receptor in presence of [3H]EKC radioligand
Mu-type opioid receptor [8] = molecular target: Mu-type opioid receptor (Cavia porcellus, UniProt P97266); assay: Tested for its antagonist activity against mu receptor using DAMGO […] in isolated guinea pig ileum; type: functional, tissue-based; settings: read-out: pA2 (converted)
[9] = molecular target: Delta-type opioid receptor (Rattus norvegicus, UniProt P33533); assay: Tested for binding affinity towards delta receptor in rat brain homogenates using [3H]D-Ala2-[…]-enkephalin as radioligand; type: tissue-based
[10] = molecular target: Delta-type opioid receptor (Mus musculus, UniProt P32300); assay: Tested for its antagonist activity against (DPDE)delta receptor in mouse vas deferens; type: functional, tissue-based; settings: read-out: pA2 (converted)
[11] = molecular target: T1, Kappa-type opioid receptor; assay: Tested for its antagonist activity against kappa receptor using U-69,593 […] in isolated guinea pig ileum; type: functional, tissue-based; settings: read-out: pA2 (converted)
[12] = molecular target: Mu-type opioid receptor (Rattus norvegicus) (UniProt P33535); assay: Tested for binding affinity towards mu receptor in presence of [3H]NAL radioligand at 10 nM
[13] = molecular target: Mu-type opioid receptor (Rattus norvegicus) (UniProt P33535); assay: Tested for binding affinity towards mu receptor in presence of [3H]NAL radioligand at 100 nM
[14] = Mus musculus, po, read-out: ED50
[15] = Mus musculus, sc, read-out: ED50

Sequence of Kappa-type opioid receptor (Cavia porcellus) (P41144 whole entry): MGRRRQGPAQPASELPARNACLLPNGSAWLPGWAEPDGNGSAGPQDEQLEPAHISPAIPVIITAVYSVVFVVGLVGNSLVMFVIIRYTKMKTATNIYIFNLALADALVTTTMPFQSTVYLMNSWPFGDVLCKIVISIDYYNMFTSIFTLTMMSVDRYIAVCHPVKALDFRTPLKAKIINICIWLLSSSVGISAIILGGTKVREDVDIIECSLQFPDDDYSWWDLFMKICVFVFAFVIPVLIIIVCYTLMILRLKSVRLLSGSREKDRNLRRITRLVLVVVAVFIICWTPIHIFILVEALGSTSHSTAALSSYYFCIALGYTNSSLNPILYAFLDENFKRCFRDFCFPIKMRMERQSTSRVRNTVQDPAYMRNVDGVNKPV
T1 sequence (P41144 whole entry): as above
Sequence of Mu-type opioid receptor (Rattus norvegicus) (P33535 whole entry): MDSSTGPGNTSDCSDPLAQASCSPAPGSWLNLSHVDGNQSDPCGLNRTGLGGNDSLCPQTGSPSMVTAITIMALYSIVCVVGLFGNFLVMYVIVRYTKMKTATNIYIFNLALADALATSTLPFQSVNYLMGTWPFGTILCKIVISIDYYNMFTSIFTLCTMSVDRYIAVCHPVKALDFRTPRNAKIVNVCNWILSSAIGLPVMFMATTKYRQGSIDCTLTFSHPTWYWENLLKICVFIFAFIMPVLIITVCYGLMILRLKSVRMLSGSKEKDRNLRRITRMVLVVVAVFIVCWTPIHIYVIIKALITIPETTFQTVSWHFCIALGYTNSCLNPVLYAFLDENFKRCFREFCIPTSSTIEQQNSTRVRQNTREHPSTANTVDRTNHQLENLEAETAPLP
Sequence of Mu-type opioid receptor (Rattus norvegicus, UniProt P33535) (P33535 whole entry): as above
Sequence of Delta-type opioid receptor (Rattus norvegicus, UniProt P33533) (P33533 whole entry): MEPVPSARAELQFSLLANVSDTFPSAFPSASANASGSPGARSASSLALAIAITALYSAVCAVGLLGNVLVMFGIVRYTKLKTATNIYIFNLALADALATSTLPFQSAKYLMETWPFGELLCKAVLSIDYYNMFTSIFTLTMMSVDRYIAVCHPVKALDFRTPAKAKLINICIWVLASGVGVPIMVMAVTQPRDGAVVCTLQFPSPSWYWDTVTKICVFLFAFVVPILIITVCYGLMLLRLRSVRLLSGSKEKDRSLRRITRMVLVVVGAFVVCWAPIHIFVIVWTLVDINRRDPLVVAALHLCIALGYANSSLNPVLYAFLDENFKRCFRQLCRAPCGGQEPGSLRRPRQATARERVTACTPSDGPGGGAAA
Sequence of Delta-type opioid receptor (Mus musculus, UniProt P32300) (P32300 whole entry): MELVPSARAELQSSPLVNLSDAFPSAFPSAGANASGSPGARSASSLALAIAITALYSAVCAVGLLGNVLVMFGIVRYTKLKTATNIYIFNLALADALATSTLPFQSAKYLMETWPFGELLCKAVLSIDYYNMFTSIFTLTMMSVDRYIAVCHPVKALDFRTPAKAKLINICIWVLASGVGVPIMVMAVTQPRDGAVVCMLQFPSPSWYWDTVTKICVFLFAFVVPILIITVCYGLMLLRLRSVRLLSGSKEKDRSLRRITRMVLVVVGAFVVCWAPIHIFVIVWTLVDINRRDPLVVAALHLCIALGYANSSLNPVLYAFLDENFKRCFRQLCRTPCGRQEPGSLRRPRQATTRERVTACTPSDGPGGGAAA
Sequence of Mu-type opioid receptor (Cavia porcellus, UniProt P97266) (P97266 whole entry): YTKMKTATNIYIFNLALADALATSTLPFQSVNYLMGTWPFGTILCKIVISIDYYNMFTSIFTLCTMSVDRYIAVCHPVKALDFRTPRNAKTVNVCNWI

## CC(C)COC(=O)CNC(=O)C(Cc1ccccc1)CN1CCC(C)(c2cccc(O)c2)C(C)C1 (racemic)
[1]
  Specific Displacement: 7%
Mus musculus [2]; [14]
  ED50: 1.1 mg/kg
Mu-type opioid receptor [3]
  pKi: 8.40
Mus musculus [4]; [15]
  ED50: 0.15 mg/kg
Mus musculus [5]
  AD50: >40 mg/kg
[6]
  Specific Displacement: 16%

## C[C@H]1CN(CC(Cc2ccccc2)C(=O)NCC(=O)O)CC[C@@]1(C)c1cccc(O)c1 (stereo not given in full)
[1]
  Specific Displacement: 23%
Mus musculus [2]; [14]
  ED50: 2 mg/kg
Mus musculus [4]; [15]
  ED50: 0.028 mg/kg
Mus musculus [5]
  AD50: >40 mg/kg
[6]
  Specific Displacement: 53%

## CC(C)COC(=O)CNC(=O)[C@@H](Cc1ccccc1)CN1CC[C@@](C)(c2cccc(O)c2)[C@@H](C)C1
Mus musculus [2]
  ED50: 1.3 mg/kg
[7]
  pKi: 7.64
Mu-type opioid receptor [3]
  pKi: 8.26
Mus musculus [4]
  ED50: 0.044 mg/kg
Mus musculus [5]; 1.25 mg/kg
  AD50: 11.6 mg/kg

## CC(C)COC(=O)CNC(=O)[C@@H](Cc1ccccc1)CN1CCC(C)(c2cccc(O)c2)C(C)C1 (single isomer, unassigned)
[1]
  Specific Displacement: 4%
Mus musculus [2]; [14]
  ED50: 1.7 mg/kg
Mu-type opioid receptor [3]
  pKi: 7.72
Mus musculus [4]
  ED50: 0.02 mg/kg
Mus musculus [5]; 1.25 mg/kg
  AD50: 16.8 mg/kg
[6]
  Specific Displacement: 55%

## CC1CN(C[C@H](Cc2ccccc2)C(=O)NCC(=O)O)CCC1(C)c1cccc(O)c1 (stereo not given in full)
Mus musculus [2]; [14]
  ED50: 0.84 mg/kg
Mu-type opioid receptor [8]
  Kb: 0.2 nM
[7]
  pKi: 7.40
[9]
  pKi: 8.36
[10]
  Kb: 2 nM
Mu-type opioid receptor [3]
  pKi: 9.11
Mus musculus [4]; [15]
  ED50: 0.04 mg/kg
[11]
  Kb: 15.8 nM
Mus musculus [5]
  AD50: 9 mg/kg

## CC(C)COC(=O)CNC(=O)[C@H](Cc1ccccc1)CN1CC[C@](C)(c2cccc(O)c2)[C@H](C)C1
[12]
  Specific Displacement: 57%
[1]
  Specific Displacement: 0%
Mus musculus [2]; [14]
  ED50: > 10 mg/kg
Mus musculus [4]; [15]
  ED50: 0.37 mg/kg
Mus musculus [5]
  AD50: >40 mg/kg
[13]
  Specific Displacement: 92%
[6]
  Specific Displacement: 34%

## C[C@H]1CN(CC(Cc2ccccc2)C(=O)O)CC[C@@]1(C)c1cccc(O)c1 (stereo not given in full)
[1]
  Specific Displacement: 0%
Mus musculus [4]; [15]
  ED50: 0.028 mg/kg
[6]
  Specific Displacement: 15%

## C=CCN1CC[C@]23c4c5ccc(O)c4O[C@H]2C(=O)CC[C@@]3(O)[C@H]1C5 [NALOXONE]
Mus musculus [4]; [15]
  ED50: 0.05 mg/kg
Mus musculus [5]
  AD50: 0.08 mg/kg

## CC(C)COC(=O)CNC(=O)[C@H](Cc1ccccc1)CN1CC[C@@](C)(c2cccc(O)c2)[C@@H](C)C1
[12]
  Specific Displacement: 11%
[1]
  Specific Displacement: 0%
Mus musculus [2]; [14]
  ED50: > 10 mg/kg
Mus musculus [4]; [15]
  ED50: 0.5 mg/kg
Mus musculus [5]
  AD50: 29.6 mg/kg
[13]
  Specific Displacement: 70%
[6]
  Specific Displacement: 0%
